Results taken from ChEMBL document CHEMBL5226317, “Camptothecin's journey from discovery to WHO Essential Medicine: Fifty years of promise” (Eur J Med Chem, 2021).
Structures can show the parent of a compound that is named as a salt.

How the values were obtained:
Type in all cases: functional, cell-based
[1] = system: NSCLC; test: Cytotoxicity against human NSCLC cells
[2] = system: A549; test: Cytotoxicity against human A549 cells incubated for 48 hrs by SpectraMax M5 microplate reader analysis; conditions: A549, 48 h
[3] = system: A549; test: Cytotoxicity against human A549 cells
[4] = system: HT-29; test: Cytotoxicity against human HT-29 cells
[5] = system: MSTO-211H; test: Antiproliferative activity against human MSTO-211H cells incubated for 72 hrs
[6] = system: NCI-H460; test: Antiproliferative activity against human NCI-H460 cells incubated for 72 hrs; conditions: NCI-H460, 72 h
[7] = system: HeLa; test: Antiproliferative activity against human HeLa cells incubated for 72 hrs
[8] = system: A-431; test: Antiproliferative activity against human A-431 cells incubated for 72 hrs; conditions: A-431, 72 h
[9] = system: Jurkat; test: Anticancer activity against human Jurkat cells incubated for 48 hrs by MTT assay
[10] = system: HCT-116; test: Anticancer activity against human HCT-116 cells incubated for 48 hrs by MTT assay; conditions: HCT-116, 48 h
[11] = system: DU-145; test: Anticancer activity against human DU-145 cells incubated for 48 hrs by MTT assay; conditions: DU-145, 48 h
[12] = system: A549; test: Anticancer activity against human A549 cells incubated for 48 hrs by MTT assay; conditions: A549, 48 h
[13] = system: HL-60; test: Anticancer activity against human HL-60 cells incubated for 48 hrs by MTT assay; conditions: HL-60, 48 h
[14] = system: HepG2; test: Anticancer activity against human HepG2 cells incubated for 48 hrs by MTT assay; conditions: HepG2, 48 h
[15] = system: HT-29; test: Anticancer activity against human HT-29 cells incubated for 48 hrs by MTT assay; conditions: HT-29, 48 h
[16] = system: H322; test: Anticancer activity against human H322 cells incubated for 48 hrs by MTT assay; conditions: NCI-H322, 48 h
[17] = system: KB; test: Antiproliferative activity against human KB cells incubated for 48 hrs by CCK-8 assay
[18] = system: HCT-8; test: Cytotoxicity against human HCT-8 cells
[19] = system: HCT-8; test: Antiproliferative activity against human HCT-8 cells incubated for 48 hrs by CCK-8 assay; conditions: HCT-8, 48 h
[20] = system: SGC-7901; test: Antiproliferative activity against human SGC-7901 cells incubated for 48 hrs by CCK-8 assay; conditions: SGC-7901, 48 h
[21] = system: HepG2; test: Antiproliferative activity against human HepG2 cells incubated for 48 hrs by CCK-8 assay; conditions: HepG2, 48 h
[22] = system: A549; test: Antiproliferative activity against human A549 cells measured after 72 hrs by colorimetric assay; conditions: A549, 72 h
[23] = Antiproliferative activity against human KB-VIN cells measured after 72 hrs by colorimetric assay; conditions: KBVIN
[24] = system: KB; test: Antiproliferative activity against human KB cells measured after 72 hrs by colorimetric assay
[25] = system: SBC-5; test: Cytotoxicity against human SBC-5 cells incubated for 48 hrs by MTT assay; conditions: SBC-5, 48 h
[26] = system: NCI-H520; test: Cytotoxicity against human NCI-H520 cells incubated for 48 hrs by MTT assay; conditions: NCI-H520, 48 h
[27] = system: NCI-H1299; test: Cytotoxicity against human NCI-H1299 cells incubated for 48 hrs by MTT assay; conditions: NCI-H1299, 48 h
[28] = Cytotoxicity against human NCI-H196 cells incubated for 48 hrs by MTT assay; conditions: NCI-H196, 48 h
[29] = system: SBC-3; test: Cytotoxicity against human SBC-3 cells incubated for 48 hrs by MTT assay; conditions: SBC-3, 48 h
[30] = system: A549; test: Cytotoxicity against human A549 cells incubated for 48 hrs by MTT assay; conditions: A549, 48 h
[31] = system: SW 1116; test: Anticancer activity against human SW 1116 cells incubated for 72 hrs by MTT assay; conditions: SW 1116, 72 h
[32] = system: K562; test: Anticancer activity against human K562 cells incubated for 72 hrs by MTT assay; conditions: K562, 72 h
[33] = system: SK-OV-3; test: Anticancer activity against human SK-OV-3 cells incubated for 72 hrs by MTT assay; conditions: SK-OV-3, 72 h
[34] = Anticancer activity against human SPCA1 cells incubated for 72 hrs by MTT assay; conditions: SPCA1, 72 h
[35] = system: U-251; test: Anticancer activity against human U-251 cells incubated for 72 hrs by MTT assay; conditions: U-251, 72 h
[36] = system: MDA-MB-231; test: Antiproliferative activity against human MDA-MB-231 cells
[37] = system: KB; test: Antiproliferative activity against human KB cells
[38] = system: A549; test: Antiproliferative activity against human A549 cells
[39] = Antiproliferative activity against human KB-VIN cells; conditions: KBVIN
[40] = system: MCF7; test: Antiproliferative activity against human MCF7 cells
[41] = Antiproliferative activity against human KB-VIN cells assessed as reduction in cell viability; conditions: KBVIN

CC[C@@]1(O)C(=O)OCc2c1cc1n(c2=O)Cc2cc3cc4c(cc3nc2-1)OCO4
EC50 [1]: 0.001 µM | IC50 [2]: 0.083 µM

CC[C@@]1(OC(=O)CCC(=O)O[C@@H]2O[C@@H](C)[C@H](OC(C)=O)[C@@H](OC(C)=O)[C@H]2OC(C)=O)C(=O)OCc2c1cc1n(c2=O)Cc2cc3cc4c(cc3nc2-1)OCO4
IC50 [2]: 0.083 µM

CCc1c2c(nc3ccc(OC)cc13)-c1cc([C@@](O)(CC)C(=O)NCCCN3CCOCC3)c(CO)c(=O)n1C2
IC50 [3]: 0.02 µM | IC50 [4]: 0.02 µM

CC[C@@]1(O)C(=O)OCc2c1cc1n(c2=O)Cc2c-1nc1ccccc1c2CSSCc1c2c(nc3ccccc13)-c1cc3c(c(=O)n1C2)COC(=O)[C@]3(O)CC
IC50 ([5]; Homo sapiens, MSTO-211H, 72 h): 0.0022 µM | IC50 ([5]; msto-211h): 0.002 µM | IC50 [6]: 0.006 µM | IC50 [7]: 0.009 µM | IC50 [8]: 0.021 µM

CC[C@@]1(O)C(=O)OCc2c1cc1n(c2=O)Cc2cc3cc(OCC(=O)OC(C)(C)C)ccc3nc2-1
IC50 [9]: 0.04 µM | IC50 [10]: 0.07 µM | IC50 [11]: 0.06 µM | IC50 [12]: 0.06 µM | IC50 [13]: 0.04 µM | IC50 [14]: 0.16 µM | IC50 [15]: 0.07 µM | IC50 [16]: 0.46 µM

CC[C@@]1(O)C(=O)OCc2c1cc1n(c2=O)Cc2cc3c(/C=C(\C)C(=O)OC)c(O)ccc3nc2-1
IC50 [17]: 0.73 µM | IC50 [18]: 0.03 µM | IC50 [19]: 0.03 µM | IC50 [20]: 0.262 µM | IC50 [21]: 0.176 µM

CC[C@@]1(O)C(=O)OCc2c1cc1n(c2=O)Cc2c-1nc1ccccc1c2CS
IC50 ([5]; Homo sapiens, MSTO-211H, 72 h): 0.00185 µM | IC50 ([5]; msto-211h): 0.0018 µM | IC50 [6]: 0.027 µM | IC50 [7]: 0.008 µM | IC50 [8]: 0.11 µM

CCc1c2c(nc3ccccc13)-c1cc3c(c(=O)n1C2)COC(=O)[C@]3(CC)OC(=O)CN/C(Cc1ccc(OC)cc1)=N\S(=O)(=O)c1ccc(C)cc1
IC50 [22]: 0.0314 µM | IC50 [23]: 0.026 µM | IC50 [24]: 0.142 µM

CC[C@@](O)(C(=O)NCCN1CCOCC1)c1cc2n(c(=O)c1CO)Cc1c-2nc2ccccc2c1-c1ccccc1
IC50 [3]: 0.1 µM | IC50 [4]: 0.1 µM

CC[C@]1(OC(=O)CN/C(Cc2ccc(OC)cc2)=N\S(=O)(=O)c2ccc(C)cc2)C(=O)OCc2c1cc1n(c2=O)Cc2cc3ccccc3nc2-1
IC50 [22]: 0.0314 µM | IC50 [23]: 0.026 µM | IC50 [24]: 0.142 µM

CCc1c2c(nc3ccc(OCc4cn(C(COC(CO)CO)COC(CO)CO)nn4)cc13)-c1cc3c(c(=O)n1C2)COC(=O)[C@@]3(O)CC
IC50 [25]: 4.8 µM | IC50 [26]: 1.5 µM | IC50 [27]: 1000 µM | IC50 [28]: 510 µM | IC50 [29]: 1.7 µM | IC50 [30]: 23 µM

CCc1c2c(nc3ccc(OC(=O)NC(CC(C)C)C(=O)O)cc13)-c1cc3c(c(=O)n1C2)COC(=O)[C@]3(O)CC (stereo partly drawn)
IC50 [31]: 0.091 µM | IC50 [32]: 1.62 µM | IC50 [33]: 0.001 µM | IC50 [34]: 0.385 µM | IC50 [35]: 1.7 µM

CC[C@@](O)(C(=O)NCCCN1CCOCC1)c1cc2n(c(=O)c1CO)Cc1c-2nc2ccccc2c1-c1ccccc1
IC50 [3]: 0.01 µM | IC50 [4]: 0.01 µM

CC[C@@]1(O)C(=O)OCc2c1cc1n(c2=O)Cc2c-1nc1ccccc1c2CN1CCN(C(=S)Nc2cccc3ccccc23)CC1
IC50 [36]: 0.588 µM | IC50 [37]: 0.089 µM | IC50 [38]: 0.059 µM | IC50 [39]: 0.275 µM | IC50 [40]: 0.789 µM | IC50 [41]: 0.275 µM

CC[C@@]1(O)C(=O)OCc2c1cc1n(c2=O)Cc2cc3ccccc3nc2-1 [CAMPTOTHECIN]
IC50 [9]: 0.1 µM

CCc1c2c(nc3ccc(OC(=O)N4CCC(N5CCCCC5)CC4)cc13)-c1cc3c(c(=O)n1C2)COC(=O)[C@]3(O)CC [IRINOTECAN]
IC50 [2]: 9.14 µM

CC[C@@]1(O)C(=O)OCc2c1cc1n(c2=O)Cc2cc3c(CN(C)C)c(O)ccc3nc2-1 [TOPOTECAN HYDROCHLORIDE]
IC50 [39]: 0.511 µM
